# From patent US10653780B2, “Amino lipids and methods for the delivery of nucleic acids” (ARBUTUS BIOPHARMA CORPORATION, priority 2008, dated 2020)
# Several values for one entry are separate records, joined by “and”; a condition that tells them apart may be missing. Equal values may be shown once. Read-outs that look alike come from different tables or passages of the source.
# Tests used:
# Factor VII (FVII) [1] = settings: for ED50: siRNA dose reducing serum FVII protein by 50% at 24 h, PFV LN-siRNA 40/10/40/10
# Excerpt: It is well established that in vivo RNAi silencing of specific hepatocyte proteins can be achieved following intravenous (i.v.) administration of siRNA's encapsulated in, or associated with, select nanoparticles designed for intracellular delivery. […] In this Example, rational design in combination with in vivo screening were applied to systematically modify the structure of DLinDMA and identify molecular features that enhance or reduce cationic lipid potency. More than 30 lipids were synthesized and incorporated into nucleic acid-lipid particles, i.e., lipid nanoparticles (LN) encapsulating an siRNA (LN-siRNA) targeting Factor VII (FVII), a blood clotting component synthesized and secreted by hepatocytes that is readily measured in serum. LN-siRNA systems were prepared using the same process, lipid molar ratios and particle size to minimize effects on activity resulting from formulation characteristics other than the cationic lipid. Each formulation was administered as a single bolus injection over a range of doses enabling an estimate of the siRNA dose required to reduce FVII serum protein concentrations by 50% after 24 h (ED50).
# FVII activity was evaluated in FVII siRNA-treated animals at 24 hours after intravenous (bolus) injection in C57BL/6 mice or 48 hours after intravenous (bolus) injection in SD rats. Six to 8 week old, female C57Bl/6 mice were obtained from Charles River Laboratories and acclimated for one week prior to use in studies. Animals were held in a pathogen-free environment and all procedures involving animals were performed in accordance with the guidelines established by the Canadian Council on Animal Care.
# LN-siRNA systems containing Factor VII siRNA were diluted to the appropriate concentrations in sterile phosphate buffered saline immediately prior to use, and the formulations were administered intravenously via the lateral tail vein in a total volume of 10 ml/kg. After 24 h, animals were anaesthetised with Ketamine/Xylazine and blood was collected by cardiac puncture and processed to serum (Microtainer Serum Separator Tubes; Becton Dickinson, Franklin Lakes, N.J., USA). Serum was tested immediately or stored at −70° C. for later analysis for serum Factor VII levels.
# FVII was measured using a commercially available kit (Biophen FVII Kit™; Aniara Corp., Mason, Ohio), following the manufacturer's instructions at a microplate scale. FVII reduction was determined against untreated control animals, and the results were expressed as % Residual FVII. Five dose levels (0.1, 0.3, 0.5, 1.0, and 3.0 mg/kg) were typically used.
# Serum Factor VII levels were determined using the colorimetric Biophen VII assay kit (Anaira, USA). Briefly, serially diluted pooled control serum (200%-3.125%) and appropriately diluted plasma samples from treated animals were analyzed using the Biophen VII kit according to manufacturer's instructions in 96-well, flat bottom, non-binding polystyrene assay plates (Corning, Corning, N.Y.) and absorbance at 405 nm was measured. A calibration curve was generated using the serial diluted control serum and used to determine levels of Factor VII in serum from treated animals.
# Initial studies were performed in eight to 10 week old, female C57BL/6 mice in two stages. In the first stage, the activity associated with the benchmark lipid DLinDMA was compared to the activity associated with modified forms of DLinDMA.
# Factor VII (FVII) [2] = assay: In vivo FVII activity of nucleic acid-lipid formulations in rats; design: species or system SD rats; settings: PEG-C-DOMG as PEG-lipid
# Description: The ability of various nucleic acid-lipid formulations comprising different cationic lipids was further explored in mice and rats. Each of the tested nucleic acid-lipid formulations was prepared as described above using PEG-C-DOMG as the PEG-lipid. The formulations initially tested (which included either DLin-K-DMA, DLin-K-MPZ, DLin-K-C2-DMA, or DLin-K-C4-DMA) reduced residual FVII levels in both mice (FIG. 3) and rats (FIG. 4). […] The activity of the DLin-K-C2-DMA formulation was approximately 2-3-fold greater than the DLin-K-DMA formulation in mice, and approximately 10-20-fold greater than the DLin-K-DMA formulation in rats. A comparison of FVII reduction in mice and rats using the DLin-K-DMA formulation or the DLin-K-C2-DMA formulation is shown in FIG. 5.
# [3] = type: in vivo; settings: rats
# Description: (§1) Data was recorded as % Change in Body Weight.
# Histopathology results for livers obtained from rats treated with 91 mg/kg (“5” mg/kg) were normal.
# [4] = Tolerability of DLin-K-C2-DMA lipid particles in mice; type: in vivo
# Description: as §1
# [5] = Bilayer-to-hexagonal HII transition temperature (TBH) in equimolar mixtures with DSPS; type: physicochemical
# Excerpt: Both techniques gave similar results.
# transthyretin (TTR) = assay: TTR silencing by KC2-SNALP-formulated siTTR in non-human primates (liver TTR mRNA); type: in vivo, Cynomolgus monkeys; settings: Macaca fascicularis, iv, single 15 minute i.v. infusion; 48 hours post-administration
# Excerpt: FIGS. 9A-B illustrate the efficacy of KC2-SNALP formulations. FIG. 9A is a graph showing the improved efficacy of KC2-SNALP versus a DLin-K-C2-DMA PFV formulation in mice. The in vivo efficacy of KC2-SNALP (◯) was compared to that of the un-optimized DLin-KC2-DMA PFV formulation (●) in the mouse FVII model. Data points are expressed as a percentage of PBS control animals and represent group mean (n=5)±s.d. FIG. 9B depicts the efficacy of KC2-SNALP in non-human primates. Cynomolgus monkeys (n=3 per group) received either 0.03, 0.1, 0.3 or 1 mg/kg siTTR, or 1 mg/kg siApoB formulated in KC2-SNALP or PBS as 15 minute intravenous infusions (5 mL/kg) via the cephalic vein. Animals were sacrificed at 48 hours post-administration. TTR mRNA levels relative to GAPDH mRNA levels were determined in liver samples. Data points represent group mean±s.d. *=P<0.05; **=P<0.005.
# Given the promising activity and safety profile observed in rodents in the studies described in Example 17, studies were performed in non-human primates to investigate the translation of DLin-KC2-DMA activity in higher species. For these studies, transthyretin (TTR), a hepatic gene of high therapeutic interest, was targeted. […]
# Tissues were harvested at 48 hours post-administration, and liver mRNA levels of TTR were determined. […]
# [6] = In situ determination of apparent pKa using TNS fluorescence titration
# Description: In situ pKa measurements were made using the pH sensitive fluorescent probe TNS, using a modification of the approach previously published in Bailey, A. L. and Cullis, P. R., Biochemistry 33:12573-12580 (1994).
# Titrations of surface charge as a function of pH can then be used to determine the apparent pKa (hereafter referred to as pKa) of constituent lipids (Cullis, P. R., et al., Chem Phys Lipids 40:127-144 (1986)).
structure (smiles),measurement,setting,value
"CCCCC/C=C\C/C=C\CCCCCCCCC1(CCCCCCCC/C=C\C/C=C\CCCCC)OCC(CCN(C)C)O1 (centres unmarked) [DLin-K-C2-DMA, 2,2-Dilinoleyl-4-(2-dimethylaminoethyl)-[1,3]-dioxolane]",ED50,Factor VII (FVII) [1]; Table 6,~0.1 mg/kg
same,FVII ED50,Factor VII (FVII) [1]; Table 11,~0.1 mg/kg
same,fold more potent / greater activity than DLin-K-DMA,Factor VII (FVII) [1]; mice,4 fold and 2-3 fold
same,fold difference in in vivo activity between DLin-K-C2-DMA and DLin-K-C4-DMA,"Factor VII (FVII) [1]; mouse, in vivo",> 30 fold
same,fold more potent than the DLinDMA benchmark,"Factor VII (FVII) [1]; reducing serum FVII protein, mouse, head-to-head",10 fold
same,siRNA dose as low as which in vivo activity was exhibited,Factor VII (FVII) [1]; rodents,0.01 mg/kg
same,ED50,Factor VII (FVII) [1],~0.1 mg/kg
same,encapsulated siRNA sufficient to knockdown serum FVII protein by 50%,"Factor VII (FVII) [1]; single i.v. bolus to a mouse, within 24 h, 40 mole % cationic lipid",~100 picomoles
same,fold greater activity than the DLin-K-DMA formulation,Factor VII (FVII) [2],10-20 fold
same,lipid dose as low as which significant increases in ALT/AST were seen,[3],182 mg/kg lipid
same,liver histopathology,[3]; 91 mg/kg,normal
same,clinical observations and liver appearance,[3]; 91 mg/kg lipid,appeared normal and had normal livers
same,liver histopathology,[3]; 182 mg/kg,"mild to moderate hepatocellular necrosis, centrilobular, and hepatocellular vacuolization"
same,clinical observations,[3]; 182 mg/kg lipid,slower movement and a scruffy coat
same,clinical observations and liver appearance,[3]; 364 mg/kg lipid,"hunched, slower movement, quinting eyes, scruffy coats, piloerection, red/orange uring, with pale and some mottling livers"
same,mortality,[3]; 364 mg/kg lipid,one died
same,body weight,[3]; 24 hours after i.v. treatment,dose-dependent loss of weight
same,body weight,[4]; mice,dose-dependent loss of weight
same,increase in ALT-AST,"[4]; mice, approximately 1100 mg/kg lipid",greater than 10 fold
same,clinical signs,"[4]; mice, except at greater than 1300 mg/kg (hunched, slower movement, scruffy coat)",no obvious clinical signs
same,mortality,"[4]; mouse, in vivo",no mice died
same,TBH lower than that for DLinDMA,[5],7 °C
same,HII transition temperature,"[5]; equimolar with DSPS, pH 4.8, 31P NMR and DSC",20 °C
same,ED50,transthyretin (TTR),0.3 mg/kg
same,pKa,[6],6.4
same,pKa,[6]; nucleic acid-lipid particles containing the cationic lipid,6.4
